Measurements from patent publication US20250108038A1 (priority 2023, published 2025).
“And” between values parts separate entries of the source, which are not always exact repeats. Equal values may be shown once. Where a name gives a salt, the structure may show the parent alone.

Test system: Long Evans rats
Assay: Behavioral satiety sequence (BSS)
Format: in vivo, Long Evans rat
From the text: The Behavioural Satiety Sequence (BSS) is a technique used to evaluate physiological satiety. It is based on the expression of a sequence of behaviors including eating, grooming, locomotor activity, followed by resting, which are typically observed in rodents post-ingestion (Halford et al, 1998, Pharmacology Biochemistry and Behaviour. 61(2): 159-168). The BSS is a widely used model for determining the effects of novel pharmaceuticals on food intake and measures of satiety in rodents (Oliveira et al, 2011, Revista de Nutrição. 24(4) 619-628), and to discriminate the cause of reduced food intake following pharmacological manipulation. For example, treatments that may reduce food intake by non-specific mechanisms, such as immobility, malaise, and taste adulteration, will disrupt this sequence (Halford et al, 1998, Pharmacology Biochemistry and Behaviour. 61(2): 159-168).
Specifically, 12 male Long-Evans rats were food-deprived for 22 h with a 2 h feeding period each day. Rats were trained to consume daily food during the 2 h period over 25 days. The testing phase was initiated once the rats consistently consumed 16-18 g of food per day with ≤10% variance in amount of feed consumed. Feeding took place in designated individual boxes in a quiet room separate from the housing room. Continuous remote monitoring via video camera during feeding was used to assess the BSS. Food consumption was measured by weighing the total available food before and after the 2 h feeding window, correcting for spillage. Lorcaserin (1 mg/kg) was included as a reference control (Higgins et al, 2011, Neuropsychopharmacology. 37(5): 1177-1191). Subjects were tested using a repeated-measures, Latin square design with 2-3 days wash-out between treatment cycles.
On scheduled test days, animals were monitored remotely via video camera during the feeding access period. The occurrence of four mutually exclusive behaviors (eating/drinking, grooming, active, rest) were individually scored. Over the 2 h feeding period, behaviors were assessed every 30 seconds. Scores were compiled into 23 5 min timebins (timebin 24 was removed due to early removal of animals) and the frequency of each behavior within each timebin was calculated to determine a temporal frequency of each measure (Rodgers et al, 2010, Pharmacology Biochemistry and Behaviour. 97: 3-14). Percentage time was plotted for each behavioral sequence in each timebin to compare between treatment groups (Higgins et al, 2011, Neuropsychopharmacology. 37(5): 1177-1191).

[1] = Lorcaserin 1 mg/kg, AVG of animals LT-1 to LT-12, 0-0.5 hours
[2] = Lorcaserin 1 mg/kg, raw data per animal LT-1 to LT-12, 0-0.5 hours, hydrochloride

In the case of `C[C@H]1CNCCc2ccc(Cl)cc21` [lorcaserin, Lorcaserin hydrochloride, reference compound], the “BSS scoring R (resting), Time Bin 12 (55-60 TOTAL)” value (Lorcaserin 1 mg/kg s.c., raw score per animal, hydrochloride) is reported as 0 (10×) and 1 (2×), the “BSS scoring A (active), Time Bin 1 (0-5 TOTAL), AVG” value [1] is reported as 0.17 and the “BSS scoring A (active), Time Bin 2 (5-10 TOTAL), AVG” value [1] is reported as 0.08. For the same compound, the “BSS scoring A (active), Time Bin 3 (10-15 TOTAL), AVG” value [1] was 0.09, the “BSS scoring A (active), Time Bin 4 (15-20 TOTAL), AVG” value [1] was 0.10 and the “BSS scoring A (active), Time Bin 5 (20-25 TOTAL), AVG” value [1] was 0.18. For the same compound, the “BSS scoring A (active), Time Bin 6 (25-30 TOTAL), AVG” value [1] was 0.15, the “BSS scoring E (eating/drinking), Time Bin 1 (0-5 TOTAL), AVG” value [1] was 0.75 and the “BSS scoring E (eating/drinking), Time Bin 2 (5-10 TOTAL), AVG” value [1] was 0.83. For the same compound, the “BSS scoring E (eating/drinking), Time Bin 3 (10-15 TOTAL), AVG” value [1] was 0.78, the “BSS scoring E (eating/drinking), Time Bin 4 (15-20 TOTAL), AVG” value [1] was 0.78 and the “BSS scoring E (eating/drinking), Time Bin 5 (20-25 TOTAL), AVG” value [1] was 0.71. The “BSS scoring E (eating/drinking), Time Bin 6 (25-30 TOTAL), AVG” value [1] was 0.75, the “BSS scoring G (grooming), Time Bin 1 (0-5 TOTAL), AVG” value [1] was 0.08 and the “BSS scoring G (grooming), Time Bin 2 (5-10 TOTAL), AVG” value [1] was 0.09. The “BSS scoring G (grooming), Time Bin 3 (10-15 TOTAL), AVG” value [1] was 0.10, the “BSS scoring G (grooming), Time Bin 4 (15-20 TOTAL), AVG” value [1] was 0.09 and the “BSS scoring G (grooming), Time Bin 5 (20-25 TOTAL), AVG” value [1] was 0.12. For the same compound, the “BSS scoring G (grooming), Time Bin 6 (25-30 TOTAL), AVG” value [1] was 0.05, the “BSS scoring R (resting), Time Bin 1 (0-5 TOTAL), AVG” value [1] was 0.01 and the “BSS scoring R (resting), Time Bin 2 (5-10 TOTAL), AVG” value [1] was 0.01. For the same compound, the “BSS scoring R (resting), Time Bin 3 (10-15 TOTAL), AVG” value [1] was 0.02, the “BSS scoring R (resting), Time Bin 4 (15-20 TOTAL), AVG” value [1] was 0.03 and the “BSS scoring R (resting), Time Bin 5 (20-25 TOTAL), AVG” value [1] was 0.00. For the same compound, the “BSS scoring R (resting), Time Bin 6 (25-30 TOTAL), AVG” value [1] was 0.05, the “BSS scoring R (resting), Time Bin 5 (20-25 TOTAL)” value (Lorcaserin 1 mg/kg, raw data per animal LT-1 to LT-12, 0-0.5 hours) was 0 and the “BSS scoring A (active), Time Bin 1 (0-5 TOTAL)” value [2] was 3 (3×) and 2 (4×) and 1 (3×) and 0 (2×). For the same compound, the “BSS scoring A (active), Time Bin 2 (5-10 TOTAL)” value [2] was 1 (3×) and 0 (6×) and 2 (3×), the “BSS scoring A (active), Time Bin 3 (10-15 TOTAL)” value [2] was 1 (7×) and 0 (3×) and 2 (2×) and the “BSS scoring A (active), Time Bin 4 (15-20 TOTAL)” value [2] was 3 (3×) and 1 (3×) and 0 (6×). The “BSS scoring A (active), Time Bin 5 (20-25 TOTAL)” value [2] was 0 (3×) and 1 (3×) and 3 (2×) and 4 (2×) and 2 (2×), the “BSS scoring A (active), Time Bin 6 (25-30 TOTAL)” value [2] was 2 (2×) and 0 (4×) and 1 (4×) and 7 and 3 and the “BSS scoring E (eating/drinking), Time Bin 1 (0-5 TOTAL)” value [2] was 7 (4×) and 6 (3×) and 8 (2×) and 10 and 9 (2×). The “BSS scoring E (eating/drinking), Time Bin 2 (5-10 TOTAL)” value [2] was 6 (2×) and 9 (4×) and 8 (3×) and 7 and 10 (2×), the “BSS scoring E (eating/drinking), Time Bin 3 (10-15 TOTAL)” value [2] was 8 (6×) and 5 and 7 and 6 and 10 and 9 (2×) and the “BSS scoring E (eating/drinking), Time Bin 4 (15-20 TOTAL)” value [2] was 7 (3×) and 8 and 6 (3×) and 10 and 9 (4×). For the same compound, the “BSS scoring E (eating/drinking), Time Bin 5 (20-25 TOTAL)” value [2] was 9 (2×) and 8 (4×) and 7 (3×) and 4 (2×) and 6, the “BSS scoring E (eating/drinking), Time Bin 6 (25-30 TOTAL)” value [2] was 7 (2×) and 9 (4×) and 10 and 8 (3×) and 1 and 5 and the “BSS scoring G (grooming), Time Bin 1 (0-5 TOTAL)” value [2] was 0 (4×) and 2 and 1 (7×). The “BSS scoring G (grooming), Time Bin 2 (5-10 TOTAL)” value [2] was 3 and 1 (4×) and 0 (5×) and 2 (2×), the “BSS scoring G (grooming), Time Bin 3 (10-15 TOTAL)” value [2] was 1 (4×) and 2 (4×) and 0 (4×) and the “BSS scoring G (grooming), Time Bin 4 (15-20 TOTAL)” value [2] was 0 (4×) and 1 (5×) and 2 (3×). For the same compound, the “BSS scoring G (grooming), Time Bin 5 (20-25 TOTAL)” value [2] was 1 (3×) and 2 (4×) and 0 (4×) and 3, the “BSS scoring G (grooming), Time Bin 6 (25-30 TOTAL)” value [2] was 0 (7×) and 1 (4×) and 2 and the “BSS scoring R (resting), Time Bin 1 (0-5 TOTAL)” value [2] was 0 (11×) and 1. The “BSS scoring R (resting), Time Bin 2 (5-10 TOTAL)” value [2] was 0 (11×) and 1, the “BSS scoring R (resting), Time Bin 3 (10-15 TOTAL)” value [2] was 0 (10×) and 1 (2×) and the “BSS scoring R (resting), Time Bin 4 (15-20 TOTAL)” value [2] was 0 (8×) and 1 (4×).
